In patent publication US11168072B2, “Crystal form of morpholino quinazoline compound, preparation method therefor and use thereof” (SHANGHAI YINGLI PHARMACEUTICAL CO., LTD, priority 2018, dated 2021):
Entries after “also recorded” stand apart in the source; their conditions may differ. Each block holds one compound with its values, some of them ahead of it.

Assays:
Type in all cases: physicochemical
[1] = Stability under high temperature, high humidity, illumination (influencing factors); conditions: for stability under illumination conditions (conclusion): illumination 4500±500 Lux; for changes in the appearance: illumination, high temperature (60° C.) and high humidity (25° C., RH75%) for 10 days
Procedure: Appropriate amount of the samples of the crystal form I of the morpholino quinazoline compound represented by formula A were placed on culture dishes which were then left open under high temperature (40±2° C. and 60±2° C.), high humidity (25° C., RH75±5% and RH90±5%) and illumination (4500±500 Lux, 25° C.) conditions, respectively.
Appropriate amount of the samples of the amorphous form of the morpholino quinazoline compound represented by formula A and the samples of the crystal form II of the morpholino quinazoline compound represented by formula A were placed on culture dishes respectively, which were then left open under high temperature (60±2° C.), high humidity (25° C., RH75±5%) and illumination (4500±500 Lux, 25° C.) conditions, respectively.

[2] = Dynamic vapor sorption analysis (DVS); conditions: for increase by mass compared to the initial mass (DVS weight gain): relative humidity from 0% to 95%
Procedure: (§1) Dynamic vapor sorption analysis (DVS): about 10 mg of the sample was taken and dried for 60 minutes under a temperature set at 25° C. and a humidity of 0% RH, and then the moisture sorption characteristics of the sample when the humidity changed from 0% RH to 95% RH was tested, and the moisture desorption characteristics of the sample when the humidity changed from 95% RH to 0% RH was tested; the humidity change step was 5% RH; the value of the mass change rate dm/dt less than 0.002% was considered as balance equilibrium, the rate of mass change within 5 minutes less than 0.01%/minute was considered as the equilibrium standard in the testing process, and the maximum equilibrium time was 2 hours. The isothermal water adsorption/desorption characteristics under this test condition were determined and XRPD detection was performed on the samples after the DVS test.
as §1, with “About” for “Dynamic vapor sorption analysis (DVS): about”

[3] = Stability of crystal form in water and organic solvents at room temperature for 10 days (suspension, XRPD)
Procedure: About 20 mg of solid samples of the crystal form I of the morpholino quinazoline compound represented by formula A were weighed respectively and placed into vials, 1 mL of water or organic solvent was added to the vials respectively, and sonicated for 5 min to obtain suspensions. The suspensions were spun at room temperature for 10 days and the filtered wet samples were characterized by XRPD.

[4] = Stability in organic solvents with slurrying at high temperature for 18 hours (XRPD); conditions: slurried in ethanol, isopropanol and n-heptane at 80° C. for 18 hours
Procedure: To 5 g of the crystal form I of the morpholino quinazoline compound represented by formula A was added 10 g of ethanol, 10 g of isopropanol, and 10 g of n-heptane. The mixture was slurried at 80° C. for 18 hours, cooled to room temperature, filtered, and dried under vacuum at less than 85° C. for 16 hours to obtain about 4 g of sample.

[5] = high temperature (60° C.) and high humidity (25° C., RH75%)
[6] = illumination 4500 Lux ± 500 Lux, 25° C., 5 days
[7] = illumination 4500 Lux ± 500 Lux, 25° C., 10 days
[8] = illumination (4500±500 Lux, 25° C.)
[9] = illumination 4500 Lux ± 500 Lux, 25° C., 1 month

Content (%) ([1]; 0 day): 98.60% | Total impurities (%) ([1]; 0 day): 1.32% | Total impurities (%) ([1]; 25° C., RH 75 ± 5%, 5 days): 1.37% | Total impurities (%) ([1]; 25° C., RH 75 ± 5%, 10 days): 1.31% | Content (%) ([1]; 60° C., 5 days): 98.43% | Content (%) ([1]; 60° C., 10 days): 98.48% | Total impurities (%) ([1]; 60 ± 2° C., 5 days): 1.54% | Total impurities (%) ([1]; 60 ± 2° C., 10 days): 1.46% | Content (%) ([1]; 75% RH (25° C.), 5 days): 98.51% | Content (%) ([1]; 75% RH (25° C.), 10 days): 98.62% | change of total impurities content [1, 5]: increases slightly | Content (%) [1, 6]: 98.29% | Total impurities (%) [1, 6]: 1.68% | Content (%) [1, 7]: 97.80% | Total impurities (%) [1, 7]: 2.16% | stability under illumination conditions (conclusion) ([1]; 25° C.): unstable | change of total impurities content [1, 8]: increases significantly | changes in the appearance [1]: no significant changes
Structure (SMILES): COc1ncc(-c2nc(N3CCOCC3)nc3c(CN4CCC(C(C)(C)O)CC4)cc(F)cc23)cc1NS(C)(=O)=O [Amorphous form]

stability under high temperature, high humidity and illumination conditions (conclusion) [1]: good stability | Moisture (%) ([1]; 0 day): 0.07% | Total impurities (%) ([1]; 0 day): 0.1% | Moisture (%) ([1]; 25° C., RH 75 ± 5%, 1 month): 0.1% | Total impurities (%) ([1]; 25° C., RH 75 ± 5%, 1 month): 0.1% | Moisture (%) ([1]; 25° C., RH 75 ± 5%, 5 days): 0.1% | Total impurities (%) ([1]; 25° C., RH 75 ± 5%, 5 days): 0.1% | Moisture (%) ([1]; 25° C., RH 75 ± 5%, 10 days): 0.2% | Total impurities (%) ([1]; 25° C., RH 75 ± 5%, 10 days): 0.1% | Moisture (%) ([1]; 25° C., RH 90 ± 5%, 1 month): 0.1% | Total impurities (%) ([1]; 25° C., RH 90 ± 5%, 1 month): 0.1% | Moisture (%) ([1]; 25° C., RH 90 ± 5%, 5 days): 0.2% | Total impurities (%) ([1]; 25° C., RH 90 ± 5%, 5 days): 0.1% | Moisture (%) ([1]; 25° C., RH 90 ± 5%, 10 days): 0.2% | Total impurities (%) ([1]; 25° C., RH 90 ± 5%, 10 days): 0.1% | Moisture (%) ([1]; 40 ± 2° C., 1 month): 0.1% | Total impurities (%) ([1]; 40 ± 2° C., 1 month): 0.1% | Moisture (%) ([1]; 40 ± 2° C., 5 days): 0.1% | Total impurities (%) ([1]; 40 ± 2° C., 5 days): 0.1% | Moisture (%) ([1]; 40 ± 2° C., 10 days): 0.2% | Total impurities (%) ([1]; 40 ± 2° C., 10 days): 0.1% | Moisture (%) ([1]; 60 ± 2° C., 1 month): 0.1% | Total impurities (%) ([1]; 60 ± 2° C., 1 month): 0.1% | Moisture (%) ([1]; 60 ± 2° C., 5 days): 0.2% | Total impurities (%) ([1]; 60 ± 2° C., 5 days): 0.1% | Moisture (%) ([1]; 60 ± 2° C., 10 days): 0.2% | Total impurities (%) ([1]; 60 ± 2° C., 10 days): 0.1% | Moisture (%) [1, 9]: 0.1% | Total impurities (%) [1, 9]: 0.2% | Moisture (%) [1, 6]: 0.1% | Total impurities (%) [1, 6]: 0.1% | Moisture (%) [1, 7]: 0.1% | Total impurities (%) [1, 7]: 0.1% | increase by mass compared to the initial mass (DVS weight gain) ([2]; 25° C.): 0.34% | increase by mass compared to the initial mass (DVS) ([2]; relative humidity from 0 to 90%, 25° C.): 0.23% | stability in water and organic solvents (conclusion) ([3]; room temperature and high temperature): good stability | crystal form of filtered wet sample by XRPD ([3]; suspension in water or organic solvents, room temperature, 10 days): did not change | X-ray powder diffraction pattern versus crystal form I of Example 1 [4]: consistent
Structure (SMILES): COc1ncc(-c2nc(N3CCOCC3)nc3c(CN4CCC(C(C)(C)O)CC4)cc(F)cc23)cc1NS(C)(=O)=O [Crystal form I]
hygroscopicity (conclusion) [2]: less hygroscopicity; also recorded: very low hygroscopicity

Content (%) ([1]; 0 day): 96.65% | Total impurities (%) ([1]; 0 day): 3.28% | Total impurities (%) ([1]; 25° C., RH 75 ± 5%, 5 days): 3.18% | Total impurities (%) ([1]; 25° C., RH 75 ± 5%, 10 days): 3.61% | Content (%) ([1]; 60° C., 5 days): 95.85% | Content (%) ([1]; 60° C., 10 days): 97.0% | Total impurities (%) ([1]; 60 ± 2° C., 5 days): 4.04% | Total impurities (%) ([1]; 60 ± 2° C., 10 days): 2.97% | Content (%) ([1]; 75% RH (25° C.), 5 days): 96.75% | Content (%) ([1]; 75% RH (25° C.), 10 days): 96.24% | change of total impurities content [1, 5]: increases slightly | Content (%) [1, 6]: 96.26% | Total impurities (%) [1, 6]: 3.64% | Content (%) [1, 7]: 95.80% | Total impurities (%) [1, 7]: 4.14% | stability under illumination conditions (conclusion) ([1]; 25° C.): unstable | change of total impurities content [1, 8]: increases significantly | changes in the appearance [1]: no significant changes | increase by mass compared to the initial mass (DVS weight gain) ([2]; 25° C.): 6.237% | increase by mass compared to the initial mass (DVS weight gain) ([2]; 25° C., listed as crystal type II): 6.237% | weight gain of crystal form II relative to that of crystal form I ([2]; relative humidity from 0 to 95%): 18 times
Structure (SMILES): COc1ncc(-c2nc(N3CCOCC3)nc3c(CN4CCC(C(C)(C)O)CC4)cc(F)cc23)cc1NS(C)(=O)=O [Crystal form II]
